From patent US5173500A, “Pharmaceutical compositions and methods of sulphonamides containing a tetrazolyl radical” (Boehringer Mannheim GmbH, priority 1988, dated 1992)

Key:
[1] = system: thrombocyte aggregation induced by thromboxane mimetic U 46619 (TX antagonistic effect); assay: Thrombocyte aggregation induced by U 46619 in platelet-rich plasma (method of Born and Cross); assay type: cell-based; conditions: Homo sapiens, 5 min; platelet-rich plasma of healthy blood donors; aggregation induced by U 46619, followed over 5 minutes
Description: Thrombocyte aggregation was investigated by the method of Born to Cross (J. Physiol. 168, 178 (1963)) in platelet-rich plasma of healthy blood donors. To inhibit clotting, the blood was mixed with 3.2% citrate in a ration by volume 1:9.
To induce thrombocyte aggregation, U 46619 (Upjohn & Co., Kalamazoo, Mich., USA), which is a stable analog of the prostagladin endoperoxide PHG2, was used. U 46619 has been characterized as a selective thromboxane mimetic (Coleman et al., Brit. J. Pharmacol. 68, 127 P., 1980).
The aggregation test was carried out in a 4-channel aggregometer (Profiler®, of the Bio/Data Co., USA). The course of the aggregation was followed over a period of 5 minutes. At the end of the test, the degree of aggregation attained was printed out. These values, which were obtained in the presence of different concentrations of the substance being tested, were used for the determination of the IC50 value for the TX antagonistic effect. The effectiveness varies inversely with the IC50 value.

[2] = system: Male NMRI mice challenged with lethal dose of U 46619; assay: Survival of mice after lethal i.v. injection of thromboxane mimetic U 46619; assay type: in vivo; conditions: Mus musculus, iv, lethal dose U 46619 (800-1000 ug/kg) i.v. after 4 hours; for responders at 1 mg/kg: 1 mg/kg by stomach tube in 1% methylcellulose, read-out: Survival Rate of Mouse 1 mg/kg, 4 h in %; for responders at 25 mg/kg: 25 mg/kg by stomach tube in 1% methylcellulose, read-out: Survival Rate of Mouse 25 mg/kg, 4 h in %
Description: Male NMRI mice, with a body weight of 25 g, were used. The test substance was suspended in 1% methylcellulose and administered to the experimental animals with the aid of a stomach tube. The provacation test consisted of injecting a lethal dose (800-1000/ug/kg) of the thromboxane mimetic (U 46619, Upjohn Co.) rapidly into the tail vein. The duration of the specific antagonistic effect was tested by pretreating the animals with 25 or 1 mg/kg of the different test substances and injecting U 46619 after 4 hours. The survival rate indicates how many of the animals which were used survived the injection of the thromboxane mimetic.

Compound | IC50 [1] [µM] | responders at 1 mg/kg [2] [%] | responders at 25 mg/kg [2] [%]
O=C(CCC(=O)c1ccc(CCNS(=O)(=O)c2ccc(Br)cc2)cc1)Nc1nnn[nH]1 [6/III, 4-Oxo-4-{4-[2-(4-bromobenzenesulphonamido)-ethyl]-phenyl}-butyric acid (1H-tetrazol-5-yl)-amide] | 55 | 100 | 100
O=C(COc1cccc(CCNS(=O)(=O)c2ccc(Cl)cc2)c1)Nc1nnn[nH]1 [Example 2, 3-[2-(4-Chlorobenzenesulphonamido)-ethyl]-phenoxyacetic acid (1H-tetrazol-5-yl)-amide] | 6 | 100 | 100
O=S(=O)(NCCc1ccc(Nc2nnn[nH]2)cc1)c1ccc(Cl)cc1 [Example 3, 4-[2-(4-Chlorobenzenesulphonamido)-ethyl]-N-(1H-tetrazole-5-yl)-aniline] | 0.2 | 20 | 100
O=C(COc1ccc(CCNS(=O)(=O)c2ccc(Cl)cc2)cc1)Nc1nnn[nH]1 [Example 4, 4-[2-(4-Chlorobenzenesulphonamido)-ethyl]-phenoxyacetic acid (1H-tetrazol-5-yl)-amide] | 9 | 80 | 100
O=C(Cc1ccc(CCNS(=O)(=O)c2ccc(Cl)cc2)cc1)Nc1nnn[nH]1 [Example 5, 4-[2-(4-Chlorobenzenesulphonamido)-ethyl]-phenylacetic acid (1H-tetrazol-5-yl)-amide] | 0.9 | 80 | 100
O=S(=O)(NCCc1ccc(Cc2nnn[nH]2)cc1)c1ccc(Cl)cc1 [Example 8, 5-{4-[2-(4-Chlorobenzenesulphonamido)-ethyl]-phenyl-methyl}-1H-tetrazole] | 0.07 | 100 | 100
Cc1ccc(S(=O)(=O)NCCc2cccc(OCC(=O)Nc3nnn[nH]3)c2)cc1 [Example 15, 3-[2-(4-Methylbenzenesulphonamido)-ethyl]-phenoxyacetic acid (1H-tetrazol-5-yl)-amide] | 24 | 100 | 100
O=C(COc1cccc(CCNS(=O)(=O)c2ccccc2Cl)c1)Nc1nnn[nH]1 [Example 16, 3-[2-(2-Chlorobenzenesulphonamido)-ethyl]-phenoxyacetic acid (1H-tetrazol-5-yl)-amide] | 17 | 40 | 100
